# Measurements from patent US6803479B2, “Reagents and method for spatio-temporal control of gene expression by illumination” (University of Maryland Biotechnology Institute, priority 2001, dated 2004).
# “Also recorded” adds a separate entry of the source.
# Assays:
# ecdysone receptor [1] = conditions: cited from earlier work
# NIH3T3-ER fibroblasts = test: Toxicity in cell culture (CyQuant DNA quantification); type: cell-based; conditions: 48 hours
# Experimental: Cellular toxicity of NSE-1 was tested in cell culture. NIH3T3-ER fibroblasts (Stratagene, La Jolla, Calif.) were seeded into 96-well plates, allowed to attach for 24 hours in DMEM supplemented with 10% v/v fetal bovine serium (FBS). The medium was then replaced with DMEM-10 FBS containing ecdysoid drugs or solvent vehicle, and the cells were allowed to grow for 48 hours, at the end of which the cells were lysed and the amount of DNA in each well quantified through the CyQuant assay (Molecular Probes, Inc. Eugene, Oreg.).
# Cellular toxicity of NSE-1 was tested in cell culture. NIH3T3-ER fibroblasts (Stratagene) were seeded into 96-well plates, allowed to attach for 24 hours in DMEM supplemented with 10% v/v fetal bovine serum (FBS). The medium was then replaced with DMEM-10% FBS containing ecdysoid drugs or solvent vehicle. Ethanol and DMSO were vehicle controls for ponasterone A and NSE-1, respectively. The cells were allowed to grow for 48 hours, at the end of which the cells were permeabilized and the amount of DNA in each well quantified with the CyQuant assay (Molecular Probes). […] The data are summarized in FIG. 1 (each measurement is the mean of 6 wells).
# ecdysone receptor [2] = test: Activation of the ecdysone-regulable gene expression system; type: cell-based, D. melanogaster
# Description: The ecydysone-regulable gene expression system relies on a recombinant ecdysone receptor (VgEcR), which is an N-terminal truncation of the natural ecdysone receptor from D. melanogaster fused to the activation domain of VP16 from HSV; VgEcR also bears 3 point mutations in the P box of the DNA-binding domain of EcR to resemble that of the glucocorticoid receptor (GR) to allow recognition of a synthetic ecdysone-response element (E/GRE), which consists of inverted half-site recognition elements for the retinoid X receptor (RXR) and GR DNA-binding domains. The hybrid E/GRE sequence is designed to evade recognition by any endogenous nuclear receptors. With RXR, the vertebrate homologue of Drosophila ultraspiracle (Yao et al. 1992), VgEcR forms a heterodimer that binds to E/GRE and initiates transcription. The ecdysone-inducible expression system has very low basal expression (No et al. 1996), because the presence of ecdysoid hormones is obligatory for receptor heterodimerization and DNA binding (Yao et al. 1993). Finally, ecdysoid hormones have no known corresponding bioactivity in vertebrates, presumably because there are no processes homologous to molting.
# That these ecdysone analogues are steroids presents the same chemical obstacle to caging as did mifepristone. Fortunately, however, members of the bisacylhydrazine family are potent activators of the ecdysone receptor, and they are accessible by facile organic synthetic routes. As shown in Preliminary Studies, we have successfully synthesized a non-steroidal ecdysoid (NSE) from this class of compounds. […] Furthermore, because non-steroidal mimics of ecdysoid molting hormone have been of great interest to the agrichemical business, the acute toxicity, mutagenicity, carcinogenicity, and teratogenicity of the bisacylhydrazine family of NSEs have been extensively tested since the compounds were serendipitously discovered as ecdysone mimetics in 1983 (see Dhadialla et al. 1998 and references therein).
# Aqueous solubility = type: physicochemical; conditions: aqueous KCl/HEPES buffer, 100 mM KCl, 10 mM K · HEPES, pH 7.4
# [3] = test system: EGFP-Kir2.1 fusion protein under ecdysone promoter control (VgEcR/RXR); test: Induction of reporter genes in primary rat anterior pituitary cells after adenovirus-mediated gene transfer; type: cell-based; conditions: 24 hours, single-cell microfluorimetry
# Description: Anterior pituitary glands were removed from female Sprague-Dawley rats, enzymatically dissociated, and plated onto No. 1 polylysine-coated glass coverslips for culturing as previously described (Ho et al. 1995). The cells were doubly infected with one adenovirus (AdVgRXR) that allows constitutive expression of a modified ecdysone receptor (VgEcR) and the retinoid X receptor (RXR) and a second adenovirus (AdGFIRK) that places under ecdysone promoter control the expression of a fusion protein between EGFP and a potassium channel of the inward rectifier family (Kir2.1). For infection, the adenoviruses were applied at 200 pfu's per cell in infection medium for 3-5 hours. The cells were then allowed to recover for 24 hours before being treated with ecdysoids (ponasterone A, NSE-1) or solvent vehicle for 24 hours.
# After induction, cells were then randomly chosen through a phase-contrast view and EGFP expression in each chosen cell was monitored by single-cell microfluorimetry. Because the EGFP-Kir2.1 fusion protein should be targeted to the plasma membrane, we expect its presence in the plasma membrane as well as in the Golgi-as the images in FIG. 5 indeed illustrate. A quantitative summary of the microfluorimetric data is shown in FIG. 6 (note break in y-axis scale; N shown at the base of each bar). […]
# [4] = test system: EGFP reporter gene under ecdysone promoter control in NIH3T3-ER cells; test: Induction of reporter gene expression in transiently-transfected cells; type: cell-based; conditions: 30 μM, 48 hours, single-cell microfluorimetry, NIH3T3-ER cells with pEGSH-EGFP
# Experimental: NIH3T3-ER cells were transiently transfected with a plasmid pEGSH-GFP carrying the reporter eGFP gene under ecdysone promoter control. The transfected cells were treated with 10 μM ponasterone A, or 30 μM NSE-1, or plain medium for 48 hours and then screened for induction of eGFP expression by single-cell microfluorimetry.
# NIH3T3-ER cells, in which expression of a modified ecdysone receptor and the retinoid X co-receptor are driven by the CMV promoter, were transiently transfected with the pEGSH-EGFP plasmid using FuGene 6 transfection reagent. The transfected cells were treated with 30 μM NSE-1 or vehicle for 48 hours and then screened for induction of EGFP expression by single-cell microfluorimetry.
# mice = test: Toxicity in animals (intraperitoneal injections); type: in vivo; conditions: 8 mice, 32.5 mg/ml suspension, six 200-μl aliquots at 12-hour intervals
# Experimental: NSE-1 was suspended (32.5 mg/ml) in carrier vehicle consisting of 15% w/v Pluronic F127 surfactant (BASF Corp., Wyandotte, Mich.) and 3% v/v dimethylsulfoxide in phosphate buffered saline (PBS, pH 7). […] These observations give at least preliminary data showing that NSE-1 is not acutely toxic to mammals.
# NSE-1 was suspended (32.5 mg/ml) in vehicle consisting of 15% w/v Pluronic F127 surfactant (BASF Corp., Wyandotte, Mich.) and 3% v/v dimethylsulfoxide in phosphate buffered saline (PBS, pH 7).
Structure (SMILES),activation of the ecdysone receptor (ecdysone receptor [1]),"growth capacity of the cells (amount of DNA, CyQuant) (NIH3T3-ER fibroblasts; 10 μM)","growth capacity of the cells (amount of DNA, CyQuant) (NIH3T3-ER fibroblasts; 30 μM)","growth capacity of the cells (amount of DNA, CyQuant) (NIH3T3-ER fibroblasts; 100 μM)","activity in inducing expression of reporter genes under ecdysone promoter control, relative to ponasterone A (ecdysone receptor [2])",concentrations required for activating the ecdysone system (ecdysone receptor [2]),solubility (Aqueous solubility) [µM],induction of expression of the EGFP-Kir2.1 fusion protein [3],induction of EGFP expression [4],signs of intoxication (mice)
CC(C)(O)CC[C@@H](O)[C@](C)(O)[C@H]1CC[C@@]2(O)C3=CC(=O)[C@@H]4C[C@@H](O)[C@@H](O)C[C@]4(C)[C@H]3CC[C@]12C [20-hydroxy-ecdysone],moderately activated,,,,,,,,,
"CCc1c(OC)cccc1C(=O)NN(C(=O)c1cc(C)cc(C)c1)C(C)(C)C [NSE-1, 1-(3,5-dimethylbenzoyl)-1-tert-butyl-2-(2-ethyl-3-methoxybenzoyl)hydrazine]",,"Neither Ponasterone A at 10 μM, nor NSE-1 at 10, 30 or 100 μM significantly affected the growth capacity of the cells","Neither Ponasterone A at 10 μM, nor NSE-1 at 10, 30 or 100 μM significantly affected the growth capacity of the cells","Neither Ponasterone A at 10 μM, nor NSE-1 at 10, 30 or 100 μM significantly affected the growth capacity of the cells",as active as ponasterone A,in the μM range,47,can strongly induce expression,efficacy of NSE-1 in inducing transgenes in cultured cell lines; also recorded: can induce EGFP reporter expression,did not produce any signs of intoxication
"CC(C)CC[C@@H](O)[C@](C)(O)[C@H]1CC[C@@]2(O)C3=CC(=O)[C@@H]4C[C@@H](O)[C@@H](O)C[C@]4(C)[C@H]3CC[C@]12C [Ponasterone A, reference compound]",much more robustly activated,"Neither Ponasterone A at 10 μM, nor NSE-1 at 10, 30 or 100 μM significantly affected the growth capacity of the cells",,,,in the μM range,,can strongly induce expression,,
CC(C)CC[C@@H](O)[C@](C)(O)[C@H]1CC[C@@]2(O)C3=CC(=O)[C@]4(O)C[C@@H](O)[C@@H](O)C[C@]4(C)[C@H]3[C@H](O)C[C@]12C [muristerone A],much more robustly activated,,,,,,,,,
